Measurements as given in patent US8697385B1, “Protein controlling synthesis of collagen and associated methods” (Florida State University Research Foundation, Inc., priority 2009, dated 2014).

B1: HA-tagged LARP6 lacking the C-terminal domain (ΔC-LARP6) (other)
chain: MAQSGGEARPGPKTAVQIRVAIQEAEDVDELEDEEEGAETRGAGDPARYLSPGWGSASEEEPSRGHSGTTASGGENEREDLEQEWKPPDEELIKKLVDQIEFYFSDENLEKDAFLLKHVRRNKLGYVSVKLLTSFKKVKHLTRDWRTTAHALKYSVVLELNEDHRKVRRTTPVPLFPNENLPSKMLLVYDLYLSPKLWALATPQKNGRVQEKVMEHLLKLFGTFGVISSVRILKPGRELPPDIRRISSRYSQVGTQECAIVEFEEVEAAIKAHEFMITESQGKENMKAVLIGMKPPKKKP
notes: Expressed in human lung fibroblasts; also called HA-tagged ΔC-LARP6; C-terminal deletion mutant of LARP6; not shown: HA tag
B2: HA-tagged RBMS3 (other, UniProt Q6XE24 1-437, looked up)
chain: MGKRLDQPQMYPQYTYYYPHYLQTKQSYAPAPHPMAPPSPSTNSSSNNSSNNSSGEQLSKTNLYIRGLPPGTTDQDLIKLCQPYGKIVSTKAILDKNTNQCKGYGFVDFDSPAAAQKAVASLKANGVQAQMAKQQEQDPTNLYISNLPISMDEQELENMLKPFGHVISTRILRDANGVSRGVGFARMESTEKCEVVIQHFNGKYLKTPPGIPAPSEPLLCKFADGGQKKRQNQSKYTQNGRPWPREGEAGMALTYDPTAAIQNGFYSSPYSIATNRMIPQTSITPFIAASPVSTYQVQSTSWMPHPPYVMQPTGAVITPTMDHPMSMQPANMMGPLTQQMNHLSLGTTGTIQSQDRIMILHQLLCQYMTAAAPMQGTYIPQYTPVPPTAVSIEGVVADTSPQTVAPSSQDTSGQQQQIAVDTSNEHAPAYSYQQSKP
notes: Control protein expressed in human lung fibroblasts; not shown: HA tag
B3: HA-tagged full-size LARP6 (other)
chain: MAQSGGEARPGPKTAVQIRVAIQEAEDVDELEDEEEGAETRGAGDPARYLSPGWGSASEEEPSRGHSGTTASGGENEREDLEQEWKPPDEELIKKLVDQIEFYFSDENLEKDAFLLKHVRRNKLGYVSVKLLTSFKKVKHLTRDWRTTAHALKYSVVLELNEDHRKVRRTTPVPLFPNENLPSKMLLVYDLYLSPKLWALATPQKNGRVQEKVMEHLLKLFGTFGVISSVRILKPGRELPPDIRRISSRYSQVGTQECAIVEFEEVEAAIKAHEFMITESQGKENMKAVLIGMKPPKKKPAKDKNHDEEPTASIHLNKSLNKRVEELQYMGDESSANSSSDPESNPTSPMAGRRHAATNKLSPSGHQNLFLSPNASPCTSPWSSPLAQRKGVSRKSPLAEEGRLNCSTSPEIFRKCMDYSSDSSVTPSGSPWVRRRRQAEMGTQEKSPGTSPLLSRKMQTADGLPVGVLRLPRGPDNTRGFHGHERSRACV
notes: Expressed from adenovirus in human lung fibroblasts and immunoprecipitated from cell lysate with anti-HA antibody; also called HA-tagged LARP6; not shown: HA tag

Columns and labels:
[1] = system: primary scleroderma skin fibroblasts; assay: Western blot analysis of cellular and medium collagen polypeptides, scleroderma fibroblasts; format: cell-based, human; conditions: 16 h, ML-7 40 μM, blebbistatin 100 μM; for secretion of collagen α1(I) polypeptide into the medium / secretion of collagen α2(I) polypeptide into the medium / secretion/expression of fibronectin: cytochalasin B 20 μM
Description: (§1) ML-7, blebbistatin, cytochalasin B, puromycin, and cycloheximide were purchased from Sigma. ML-7 was used at 40 μM, blebbistatin was used at 100 μM, and cytochalasin B was used at 20 μM. Cells were incubated with the drugs for 16 h before analysis. Puromycin (200 μg/ml) and cycloheximide (100 μg/ml) were added to the cells for 2 h. Human lung fibroblasts have been described previously.16 Scleroderma fibroblasts were purchased from the European Collection of Cell Cultures (cell line BM0070) and derived from the skin of a scleroderma patient. MEFs were derived from knock-in mice in which the 5′SL of the collagen α1(I) gene has been mutated (Parsons et al., submitted). Several independent cell isolates were used throughout the study. All cells were cultured in Dulbecco's modified Eagle's medium supplemented with 10% fetal bovine serum for up to 10 passages. Plasmid constructs and adenovirus preparation. The HA-tagged LARP6 clone and the deletion mutants have been described previously.^16 Adenoviruses were constructed by recloning of the constructs into the pAdCMVTRACK vector, followed by recombination with the pAdEasy vector and amplification, as described previously.^48 Expression of each construct was verified by Western blot analysis. The viruses made express both the full-size test protein and the green fluorescent protein (GFP), which is encoded by an independent transcription unit.^48 Expression of GFP served as control for viral transduction. RT-PCR analysis Total cellular RNA was isolated using an RNA isolation kit (Sigma). RT-PCRs were performed with 100 ng of total RNA or using rTth reverse transcriptase (Boca Scientific, Boca Raton, Fla.). [^32P]dCTP was included in the PCR step to label the products, which were resolved on sequencing gels, as described previously.^8,31,49,50 When RNA from polysomal fractions was analyzed, an equal aliquot of each fraction was used. The number of cycles was adjusted to within the linear range of the reaction. The primers used for RT-PCR were as follows: h-collagen α1(I), 5′ primer […] (SEQ ID NO:3) and 3′ primer […] (SEQ ID NO:4); h-collagen α2(I), 5′ primer […] (SEQ ID NO:5) and 3′ primer […] (SEQ ID NO:6).
(§2) Protein concentration was estimated by the Bradford assay, with bovine serum albumin as standard.^51 Western blot analyses of cellular proteins were performed using 50 μg of protein. For Western blot analysis of secreted proteins, equal numbers of cells were seeded, serum-free medium was added to the cells, and incubation continued for 3 h. The medium was collected, and an aliquot was analyzed directly by Western blot analysis. Use of serum free medium in collecting secreted proteins is essential because fetal calf serum contains substantial amounts of collagen and fibronectin.^15,31 For immunostaining, cells were seeded onto glass coverslips. After treatment, the cells were fixed with 4% paraformaldehyde for 30 min at room temperature and permeabilized with 0.5% Triton X-100 in phosphatebuffered saline (PBS) for 10 min. After the cells had been blocked with 10% goat serum/5% bovine serum albumin in PBS for 1 h at room temperature, they were incubated with primary antibody overnight at 4° C., washed, and visualized with AlexaFluor594-conjugated or Cy-2-conjugated secondary antibodies. The cells were mounted using VECTASHIELD mounting medium containing […], 6-diamidino-2-phenylindole (Vector Laboratories), and images were taken by a Leica TCS SP2 AOBS laser confocal microscope equipped with a Chameleon Ti: Sapphire multiphoton laser. Optical sections were processed with LCSLite software.
(§3) To assess the role of nonmuscle myosin in collagen synthesis, we disrupted nonmuscle myosin filaments in two different cell types: primary human lung fibroblasts and primary scleroderma skin fibroblasts. These cells are responsible for lung and skin fibrosis. […]

human lung fibroblasts = assay: Western blot analysis of cellular and medium collagen polypeptides, lung fibroblasts; format: cell-based; conditions: 16 h, ML-7 40 μM, blebbistatin 100 μM, vs control cells; for secretion of collagen α1(I) polypeptide into the medium / secretion of collagen α2(I) polypeptide into the medium / secretion/expression of fibronectin: cytochalasin B 20 μM
Description: as §1, §2, §3

nonmuscle myosin IIB [2] = assay: Immunoprecipitation of nonmuscle myosin IIB and RT-PCR of collagen mRNAs; format: cell-based, human; conditions: lung fibroblasts; cycloheximide 100 μg/ml or puromycin 200 μg/ml, 2 h
Description: ML-7, blebbistatin, cytochalasin B, puromycin, and cycloheximide were purchased from Sigma. ML-7 was used at 40 μM, blebbistatin was used at 100 μM, and cytochalasin B was used at 20 μM. Cells were incubated with the drugs for 16 h before analysis. Puromycin (200 μg/ml) and cycloheximide (100 μg/ml) were added to the cells for 2 h. Human lung fibroblasts have been described previously.16 Scleroderma fibroblasts were purchased from the European Collection of Cell Cultures (cell line BM0070) and derived from the skin of a scleroderma patient. MEFs were derived from knock-in mice in which the 5′SL of the collagen α1(I) gene has been mutated (Parsons et al., submitted). […] [^32P]dCTP was included in the PCR step to label the products, which were resolved on sequencing gels, as described previously.^8,31,49,50 When RNA from polysomal fractions was analyzed, an equal aliquot of each fraction was used. […]
One of the roles of nonmuscle myosin filaments may be to present collagen mRNAs to ribosomes. Therefore, we assessed if the association of collagen mRNAs with nonmuscle myosin is dependent on intact polysomes. […] We then immunoprecipitated nonmuscle myosin from lung fibroblasts treated with cycloheximide or puromycin and analyzed if this can change the pull-down of collagen mRNAs. As control, the association with vimentin was analyzed in the same samples (FIG. 9b). […]

nonmuscle myosin IIA = molecular target: T1, nonmuscle myosin IIA (human, UniProt P35579 2-1960); assay: co-immunoprecipitation with anti-HA antibody from human lung fibroblasts, Western blot with anti-myosin IIA
T1 construct: Endogenous protein in lysate of human lung fibroblasts, detected with anti-myosin IIA antibody; also called MYO IIA
Description: (§4) HA, Western blot analysis using anti-HA antibody as control for immunoprecipitation efficiency of the tagged proteins. (c) Experiment as in (b), but Western blot analysis was performed using anti-myosin IIA antibody (MYO IIA). […] Experiment as in (b), but the lysate was treated with Rnase. A prior to immunoprecipitation (lane 1) or was not treated (lanes 2 and 3). The immunoprecipitate was analyzed with anti-myosin IIB antibody (MYO IIB), anti-fibronectin antibody (FIB; as control for specificity), and anti-HA antibody (HA; as control for precipitation efficiency).

nonmuscle myosin IIB [3] = molecular target: T2, nonmuscle myosin IIB (human, UniProt P35580 1-1976, limits assumed); assay: co-immunoprecipitation with anti-HA antibody from human lung fibroblasts, Western blot with anti-myosin IIB
T2 construct: Endogenous protein in lysate of human lung fibroblasts, detected by Western blot with anti-myosin IIB (anti-MYH10) antibody; also called MYO IIB; MYH10
Description: as §4

fibronectin = molecular target: T3, fibronectin (human, UniProt P02751 32-2477, limits assumed); assay: co-immunoprecipitation with anti-HA antibody from human lung fibroblasts, Western blot with anti-fibronectin
T3 construct: Specificity control in the co-immunoprecipitations, detected with anti-fibronectin antibody
T3 sequence (P02751 32-2477 limits assumed): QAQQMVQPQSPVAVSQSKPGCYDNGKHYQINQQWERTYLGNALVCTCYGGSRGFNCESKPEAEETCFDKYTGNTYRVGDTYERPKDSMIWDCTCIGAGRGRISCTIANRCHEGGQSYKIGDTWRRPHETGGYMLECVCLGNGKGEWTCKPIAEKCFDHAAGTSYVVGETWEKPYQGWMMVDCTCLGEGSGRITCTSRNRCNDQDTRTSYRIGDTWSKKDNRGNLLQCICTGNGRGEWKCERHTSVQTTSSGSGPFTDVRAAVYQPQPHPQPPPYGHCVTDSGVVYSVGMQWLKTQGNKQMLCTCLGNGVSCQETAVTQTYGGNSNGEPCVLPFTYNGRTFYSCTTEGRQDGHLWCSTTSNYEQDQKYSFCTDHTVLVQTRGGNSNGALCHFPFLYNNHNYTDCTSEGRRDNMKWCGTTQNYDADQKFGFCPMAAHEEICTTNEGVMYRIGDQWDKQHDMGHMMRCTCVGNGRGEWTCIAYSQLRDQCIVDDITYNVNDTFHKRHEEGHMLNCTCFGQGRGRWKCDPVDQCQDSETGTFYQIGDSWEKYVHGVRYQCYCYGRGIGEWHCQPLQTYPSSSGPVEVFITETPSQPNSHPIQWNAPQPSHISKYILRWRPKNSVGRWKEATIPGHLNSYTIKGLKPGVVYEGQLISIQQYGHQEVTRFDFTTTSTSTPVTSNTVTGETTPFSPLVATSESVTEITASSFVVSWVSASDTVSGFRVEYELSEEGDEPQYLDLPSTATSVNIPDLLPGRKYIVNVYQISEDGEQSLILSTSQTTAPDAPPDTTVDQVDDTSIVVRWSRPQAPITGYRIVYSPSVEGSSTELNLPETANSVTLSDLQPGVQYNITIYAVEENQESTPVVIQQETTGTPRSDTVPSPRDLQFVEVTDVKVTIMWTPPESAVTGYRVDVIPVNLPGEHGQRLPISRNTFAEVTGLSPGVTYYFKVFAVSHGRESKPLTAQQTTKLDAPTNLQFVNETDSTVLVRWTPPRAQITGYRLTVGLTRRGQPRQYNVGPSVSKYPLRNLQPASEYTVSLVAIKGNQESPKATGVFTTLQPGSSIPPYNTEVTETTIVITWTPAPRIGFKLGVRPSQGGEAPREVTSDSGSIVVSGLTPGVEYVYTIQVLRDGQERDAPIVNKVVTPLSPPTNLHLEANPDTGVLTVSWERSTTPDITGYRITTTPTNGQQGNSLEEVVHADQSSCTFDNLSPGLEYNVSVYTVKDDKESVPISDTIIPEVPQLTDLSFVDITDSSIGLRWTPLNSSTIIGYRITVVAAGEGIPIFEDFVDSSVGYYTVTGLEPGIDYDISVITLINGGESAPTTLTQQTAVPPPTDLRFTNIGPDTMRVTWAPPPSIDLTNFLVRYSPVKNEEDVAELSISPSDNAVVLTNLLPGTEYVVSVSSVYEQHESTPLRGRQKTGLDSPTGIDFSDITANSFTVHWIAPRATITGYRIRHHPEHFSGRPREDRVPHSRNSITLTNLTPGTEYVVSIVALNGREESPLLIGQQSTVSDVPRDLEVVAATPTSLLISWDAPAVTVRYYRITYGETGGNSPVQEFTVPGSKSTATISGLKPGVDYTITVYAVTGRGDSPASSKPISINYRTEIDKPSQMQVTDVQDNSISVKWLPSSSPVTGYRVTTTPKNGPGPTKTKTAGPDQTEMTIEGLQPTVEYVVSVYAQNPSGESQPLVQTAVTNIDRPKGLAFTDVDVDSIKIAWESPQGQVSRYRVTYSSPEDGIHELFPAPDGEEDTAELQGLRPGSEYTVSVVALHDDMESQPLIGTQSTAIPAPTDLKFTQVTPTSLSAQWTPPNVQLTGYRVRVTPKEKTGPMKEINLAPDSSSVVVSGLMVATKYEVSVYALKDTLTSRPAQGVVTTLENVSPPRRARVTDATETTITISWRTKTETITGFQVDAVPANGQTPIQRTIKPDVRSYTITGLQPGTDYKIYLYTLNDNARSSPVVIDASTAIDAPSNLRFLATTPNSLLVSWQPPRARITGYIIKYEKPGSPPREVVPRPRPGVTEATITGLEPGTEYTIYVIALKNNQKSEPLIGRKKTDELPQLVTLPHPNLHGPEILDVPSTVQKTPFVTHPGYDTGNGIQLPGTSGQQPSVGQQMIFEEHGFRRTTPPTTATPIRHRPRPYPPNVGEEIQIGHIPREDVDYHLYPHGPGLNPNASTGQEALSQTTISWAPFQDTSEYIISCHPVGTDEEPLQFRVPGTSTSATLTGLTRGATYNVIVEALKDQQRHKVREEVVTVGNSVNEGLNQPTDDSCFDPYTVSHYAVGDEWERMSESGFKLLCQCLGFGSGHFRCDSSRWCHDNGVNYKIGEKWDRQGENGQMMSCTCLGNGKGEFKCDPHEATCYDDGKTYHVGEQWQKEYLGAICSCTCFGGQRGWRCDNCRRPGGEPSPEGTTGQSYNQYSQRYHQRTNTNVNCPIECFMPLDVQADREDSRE

T2 sequence (P35580 whole entry): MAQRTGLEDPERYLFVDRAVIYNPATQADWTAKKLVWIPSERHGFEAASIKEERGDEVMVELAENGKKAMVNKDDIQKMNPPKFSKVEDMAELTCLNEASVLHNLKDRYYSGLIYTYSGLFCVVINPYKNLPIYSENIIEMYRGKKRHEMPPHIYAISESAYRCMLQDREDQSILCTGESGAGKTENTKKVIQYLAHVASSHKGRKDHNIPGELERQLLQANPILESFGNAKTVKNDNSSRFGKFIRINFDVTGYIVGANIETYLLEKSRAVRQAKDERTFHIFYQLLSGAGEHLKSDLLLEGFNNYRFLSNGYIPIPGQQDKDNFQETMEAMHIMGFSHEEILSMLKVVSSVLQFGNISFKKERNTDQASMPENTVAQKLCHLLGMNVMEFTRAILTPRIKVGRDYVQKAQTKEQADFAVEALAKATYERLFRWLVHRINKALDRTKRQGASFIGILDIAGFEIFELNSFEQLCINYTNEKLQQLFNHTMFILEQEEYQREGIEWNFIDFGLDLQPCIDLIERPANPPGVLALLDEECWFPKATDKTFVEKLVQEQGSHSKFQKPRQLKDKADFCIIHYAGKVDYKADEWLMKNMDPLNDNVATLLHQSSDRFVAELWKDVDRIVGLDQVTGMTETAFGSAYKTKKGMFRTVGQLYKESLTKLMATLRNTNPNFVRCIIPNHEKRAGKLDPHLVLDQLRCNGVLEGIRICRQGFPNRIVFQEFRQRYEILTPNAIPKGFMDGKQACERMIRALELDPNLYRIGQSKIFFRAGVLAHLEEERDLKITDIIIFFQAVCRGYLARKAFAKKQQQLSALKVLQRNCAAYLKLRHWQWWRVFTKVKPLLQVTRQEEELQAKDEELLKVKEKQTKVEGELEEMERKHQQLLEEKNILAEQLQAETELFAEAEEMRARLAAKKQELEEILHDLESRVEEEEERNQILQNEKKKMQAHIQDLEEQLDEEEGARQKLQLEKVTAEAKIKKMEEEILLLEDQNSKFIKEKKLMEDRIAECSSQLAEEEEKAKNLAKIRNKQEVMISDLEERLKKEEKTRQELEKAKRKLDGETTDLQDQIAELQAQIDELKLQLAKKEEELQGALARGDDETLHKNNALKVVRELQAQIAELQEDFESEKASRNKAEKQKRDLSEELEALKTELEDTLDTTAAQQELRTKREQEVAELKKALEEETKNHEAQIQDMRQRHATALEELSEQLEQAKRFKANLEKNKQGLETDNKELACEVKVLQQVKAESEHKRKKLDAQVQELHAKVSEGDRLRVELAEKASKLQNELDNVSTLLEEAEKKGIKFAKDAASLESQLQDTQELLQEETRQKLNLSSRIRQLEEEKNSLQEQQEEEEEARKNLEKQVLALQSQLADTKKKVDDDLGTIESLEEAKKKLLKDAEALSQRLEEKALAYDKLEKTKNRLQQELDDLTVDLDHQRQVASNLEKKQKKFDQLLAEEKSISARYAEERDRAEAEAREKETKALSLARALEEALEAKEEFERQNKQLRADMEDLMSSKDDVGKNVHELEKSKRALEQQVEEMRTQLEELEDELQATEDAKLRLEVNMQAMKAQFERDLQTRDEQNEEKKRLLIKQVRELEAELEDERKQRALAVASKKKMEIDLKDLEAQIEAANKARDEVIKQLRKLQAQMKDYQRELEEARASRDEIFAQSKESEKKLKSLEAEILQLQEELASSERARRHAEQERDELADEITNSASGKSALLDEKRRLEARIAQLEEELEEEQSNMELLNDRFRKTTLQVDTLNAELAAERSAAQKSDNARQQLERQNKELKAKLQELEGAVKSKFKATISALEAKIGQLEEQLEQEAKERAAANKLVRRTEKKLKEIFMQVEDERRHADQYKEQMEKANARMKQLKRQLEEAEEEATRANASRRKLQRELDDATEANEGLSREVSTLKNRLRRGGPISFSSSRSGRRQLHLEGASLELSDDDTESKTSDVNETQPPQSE

| Molecule | secretion of collagen α1(I) polypeptide into the medium [1] | secretion of collagen α2(I) polypeptide into the medium [1] | secretion/expression of fibronectin [1] | secretion of collagen α1(I) polypeptide into the medium (human lung fibroblasts) | secretion of collagen α2(I) polypeptide into the medium (human lung fibroblasts) | secretion/expression of fibronectin (human lung fibroblasts) | binding result (nonmuscle myosin IIB [3]) | other results |
| --- | --- | --- | --- | --- | --- | --- | --- | --- |
| Cc1ccc2c(c1)C(=O)C1(O)CCN(c3ccccc3)C1=N2 (centres unmarked) [blebbistatin] | minimally affecting | abolished | small effect | minimally affecting | reduced | small effect | – | intracellular level of collagen α1(I) polypeptide [1]: unchanged; intracellular level of collagen α2(I) polypeptide [1]: unchanged; intracellular level of collagen α1(I) and α2(I) polypeptides (human lung fibroblasts): unchanged |
| C[C@@H]1C[C@@H]([C@H](O)CC2CC(=O)NC(=O)C2)C(=O)[C@@H](C)C1 [cycloheximide] | – | – | – | – | – | – | – | collagen α1(I) and α2(I) mRNAs pulled down with nonmuscle myosin IIB (nonmuscle myosin IIB [2]): both collagen mRNAs were pulled down |
| C=C1[C@@H](C)[C@H]2[C@H](Cc3ccccc3)NC(=O)[C@]23OC(=O)/C=C/[C@H](O)CCC[C@@H](C)C/C=C/[C@H]3[C@@H]1O [cytochalasin B] | no effect | small effect | small effect | diminished | diminished | had an effect | – | – |
| B1 | – | – | – | – | – | – | no binding | binding result (nonmuscle myosin IIA): no binding |
| B2 | – | – | – | – | – | – | no binding | – |
| B3 | – | – | – | – | – | – | – | binding result (fibronectin): no binding |
